Measurements from patent US10596145B2, “Heterocyclic flavone derivatives, compositions, and methods related thereto” (Emory University, priority 2012, dated 2020).
“Also recorded” adds a separate entry of the source.

Key:
Akt = experiment: Downstream Akt activation in mouse brain (p-Akt immunoblotting, p-Akt 473 ELISA); type: in vivo; details: 1 mg/kg oral
Procedure: PathScan Phospho-Akt1 (Ser473) Sandwich ELISA kit was purchased from Cell Signaling (Cat. #7160). 100 μl sample in sample diluent (supplied in the kit) was added to each well and incubated overnight at 4° C. After 4× wash with 200 ul wash buffer (supplied in the kit), 100 ul/well detection antibody was added and incubated for 1 hour at 37° C. After 4× wash, 100 μl of HRP-linked secondary antibody (supplied in the kit) was added and incubated for 30 minutes at 37° C. After a final wash, 100 μl of TMB substrate was added to each well and incubated for 10 minutes at 37° C. The reaction was stopped by adding 100 μl/well stop solution. Record the values of each well using microplate reader at 450 nm and 650 nm. The optical density was determined by the subtraction of the reading at 650 nm from the reading s at 450 nm.
(§1) Male C57BL/6 mice aged of two months were administrated orally with 4′-DMA-7,8-DHF derivatives at a single dose of 1 mg/kg for 4 h. The control mice were injected with saline. The mice were sacrificed and brains were homogenated and ultracentrafuged. The supernatant (40 μg) was employed for SDS-PAGE and immunoblotting analysis with indicated antibodies, respectively. Male C57BL/6 mice aged of two months were administrated orally with compound (i) or (m) at the dose of 5 mg/kg/day each and compound o or p at the dose of 2.5 mg/kg/day each for 21 days. BrdU (100 mg/kg) was i. p. injected two hours before the TrkB agonist treated animals were sacrificed and the hippocampal section lysates were analyzed by immunoblotting with p-TrkB and total TrkB antibodies, p-AKT ELISA.

C57BL/6J mice [1] = experiment: Forced swim test; type: in vivo, mouse; details: 5 mg/kg oral once a day, 3 weeks
Procedure: Male C57BL/6J mice (6 mice/group) were orally administrated by gavage with 5 mg/kg compound (m) or compound (i) and vehicle solvent saline for 21 days and subjected to a forced swim test (6 min, immobility recorded in the last 4 min). Data are presented as mean±SEM. (n=6, ***P<0.0001 vs vehicle, Student t-test).
Forced swim test. Male C57BL/6J mice (8 mice/group) were orally administrated by gavage with 2.5 mg/kg compound o or compound p and vehicle solvent saline for 21 days and subjected to a forced swim test (6 min, immobility recorded in the last 4 min). […] Data are presented as mean±SEM.
Adult male mice (2-3 months old) were randomly submitted to a forced swim test without a preswim. Test compounds were orally administrated by gavage for 21 days. The mice were allowed to adapt to the test room for 2 days. The mice were placed in a clear glass cylinder with a diameter of 16 cm, half-filled with clear water at 24° C.

TrkA = target: T1, TrkA (Mus musculus, UniProt Q3UFB7); experiment: TrkA activation in mouse brain (anti-p-TrkA 794 immunoblotting); type: in vivo; details: 5 mg/kg/day oral, chronically treated mice
T1 construct: from tissue; host or cells: mouse brain lysates of chronically treated C57BL/6J mice
Procedure: The brain lysates from above chronically treated mice were analyzed by immunoblotting with anti-p-TrkA 794 and p-TrkB 816.
as §1

TrkB [2] = target: T2, TrkB (Mus musculus, UniProt P15209); experiment: TrkB phosphorylation in mouse brain after oral administration (immunoblotting, immunohistochemistry); type: in vivo
T2 construct: from tissue; host or cells: mouse brain (hippocampus, cortex), C57BL/6
Procedure: One mg/kg of various indicated compounds were orally administrated into C57 BL/6J mice and TrkB phosphorylation and its downstream signaling cascades including Akt and MAPK in the hippocampus of mouse brain were analyzed by immunoblotting at 4 h. […] The downstream p-Akt and p-MAPK activity coupled to the TrkB activation patterns.
Time course assay with 4′-dimethylamino-7,8-imidazole flavone. One mg/kg of compound (i) and compound (m) were orally administrated into C57 BL/6J mice and TrkB phosphorylation and its downstream signaling cascades including Akt in mouse brain were analyzed by immunoblotting at various time points. TrkB activation by compound m peaked at 4 h, whereas the maximal TrkB activation by compound i in mouse brain occurred at 1-2 h. Arrows indicate the p-TrkB in mature glycosylated or unglycosylated forms (top panels). The downstream Akt activation pattern tightly correlated with the upstream TrkB activation.
as §1
Brain tissues were fixed in 4% paraformaldehyde overnight followed by paraffin embedding. Sections of 6 μm were cut. For immunohistochemical staining, brain sections were deparaffinized in xylene and rehydrated in graded alcohols. Endogenous peroxidase activity was blocked by 3% hydrogen peroxide for 5 min and all slides were boiled in 10 mM sodium citrate buffer (pH 6.0) for 10 min. Phosphorylated TrkB 816 and TrkB were detected using specific antibodies. Paraffin section were deparaffinized in xylene and rehydrated gradient ethanol solution. Samples were boiled in 10 mM sodium citrate buffer for 20 min for antigen retrieval purpose. Brain sections were incubated with anti-TrkB (BD Biosciences, San Jose, Calif.) 1:50, p-TrkB 1:300 dilution. Secondary antibody was applied using anti-rabbit-Alexa 594 (red), anti-mouse-fluorescein isothiocyanate (FITC) (green). DAPI (blue) was used for nuclear staining.

TrkB [3] = target: T3, TrkB (Rattus norvegicus, UniProt Q63604); experiment: TrkB activation in primary cortical neurons (immunoblotting); type: cell-based; details: 500 nM, 15 min
T3 construct: endogenous in cells; host or cells: primary cortical neurons from E17 rat embryos
Procedure: Primary cortical cultures from E17 rat embryos were treated with 500 nM of various synthetic flavone derivatives for 15 min. The cell lysates (20 μg) were analyzed by the immunoblotting.
Rat primary neurons were treated with 500 nM various indicated compounds from 15 min. The neuronal lysates ([…]) were analyzed with various antibodies.
500 nM of different synthetic compounds were added to DIV 7 neurons for 15 min. The cell lysates were analyzed by immunoblotting with indicated p-Akt 473 antibodies.
Replacing the 3′-dimethylamino group or 4′-morpholino group was tested for TrkB agonistic activity. To compare the TrkB activation by these compounds, primary cortical cultures were prepared and treated them with 500 nM of various compounds for 15 min and collected the cell lysates. […] The p-Akt ELISA analysis results were similar to the TrkB activation pattern (FIG. 2B, lower panel).

C57BL/6J mice [4] = experiment: Locomotor activity assay; type: in vivo, mouse; details: 5 mg/kg oral, 21 days, tested at day 22
Procedure: The above drug-treated mice were subjected locomotor activity at day 22. […] Data are presented as mean±SEM.
Locomotor activity was assessed using an automated system (San Diego Instruments, La Jolla, Calif., USA) with photobeams that recorded ambulations (consecutive beam breaks). Drug-treated mice were placed in the locomotor chambers, and their activity was recorded for 2 h with 30 min interval.

T2 sequence (P15209 32-821): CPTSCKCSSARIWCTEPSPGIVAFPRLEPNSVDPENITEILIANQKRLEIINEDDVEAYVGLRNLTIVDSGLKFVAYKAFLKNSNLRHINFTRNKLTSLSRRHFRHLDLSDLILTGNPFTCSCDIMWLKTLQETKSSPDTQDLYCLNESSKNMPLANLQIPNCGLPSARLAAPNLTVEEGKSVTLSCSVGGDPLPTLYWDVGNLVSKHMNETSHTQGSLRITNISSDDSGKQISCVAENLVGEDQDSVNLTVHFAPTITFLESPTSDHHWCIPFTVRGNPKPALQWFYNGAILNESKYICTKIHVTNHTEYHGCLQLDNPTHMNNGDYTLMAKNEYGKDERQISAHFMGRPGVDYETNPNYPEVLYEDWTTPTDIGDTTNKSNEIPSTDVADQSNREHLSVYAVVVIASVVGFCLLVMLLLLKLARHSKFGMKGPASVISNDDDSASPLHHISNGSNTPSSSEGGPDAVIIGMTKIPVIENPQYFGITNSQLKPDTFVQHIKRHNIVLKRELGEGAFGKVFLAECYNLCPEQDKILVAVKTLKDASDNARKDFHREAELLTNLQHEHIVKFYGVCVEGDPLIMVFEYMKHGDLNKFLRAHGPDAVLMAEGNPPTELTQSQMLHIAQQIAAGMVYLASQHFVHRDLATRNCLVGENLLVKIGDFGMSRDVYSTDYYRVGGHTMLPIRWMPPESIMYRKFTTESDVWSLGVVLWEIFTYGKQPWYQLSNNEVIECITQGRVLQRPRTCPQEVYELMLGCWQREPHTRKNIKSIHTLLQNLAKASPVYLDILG
T3 sequence (Q63604 32-821): as the sequence (P15209 32-821) above, with T3M, S9T, A10T, V32I, R63K, S84G, M153T, L185I, S394T, S770N counted along it
T1 sequence (Q3UFB7 34-799): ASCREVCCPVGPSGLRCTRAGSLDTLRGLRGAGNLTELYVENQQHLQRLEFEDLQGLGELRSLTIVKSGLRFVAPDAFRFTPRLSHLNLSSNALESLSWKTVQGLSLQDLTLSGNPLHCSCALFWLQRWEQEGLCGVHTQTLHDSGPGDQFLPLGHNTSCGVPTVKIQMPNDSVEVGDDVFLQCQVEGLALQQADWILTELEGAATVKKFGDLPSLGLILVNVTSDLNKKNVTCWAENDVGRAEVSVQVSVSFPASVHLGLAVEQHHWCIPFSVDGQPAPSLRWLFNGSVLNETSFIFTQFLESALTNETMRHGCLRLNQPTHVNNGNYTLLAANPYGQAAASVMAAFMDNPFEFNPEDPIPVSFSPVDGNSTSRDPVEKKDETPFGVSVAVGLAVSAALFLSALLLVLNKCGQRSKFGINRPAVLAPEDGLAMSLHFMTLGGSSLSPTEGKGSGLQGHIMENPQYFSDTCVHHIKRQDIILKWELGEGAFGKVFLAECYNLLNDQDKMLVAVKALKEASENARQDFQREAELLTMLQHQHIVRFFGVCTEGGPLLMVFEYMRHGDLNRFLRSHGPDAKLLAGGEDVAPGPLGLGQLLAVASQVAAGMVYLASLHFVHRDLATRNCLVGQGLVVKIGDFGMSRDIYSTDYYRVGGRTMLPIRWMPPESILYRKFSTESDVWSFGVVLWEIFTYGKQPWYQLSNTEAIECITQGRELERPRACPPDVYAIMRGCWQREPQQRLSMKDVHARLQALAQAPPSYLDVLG

- TrkA activation in mouse brain (TrkA): not TrkA
- time at which TrkB activation fades away (TrkB [2]; 1 mg/kg oral, time course): 16 h
- time of peak TrkB activation in mouse brain (TrkB [2]; 1 mg/kg oral, time course): 4 h
Compound: CN(C)c1ccc(-c2cc(=O)c3ccc4nc[nH]c4c3o2)cc1 [compound m, 8-(4-(dimethylamino)phenyl)chromeno[7,8-d]imidazol-6(1H)-one]
- downstream p-Akt and p-MAPK signalings (Akt; at 4 h): strongly activated
- p-Akt signal elevation compared to the control at peak (Akt; at 8 h): about 250%
- time of peak p-Akt activation (p-Akt ELISA) (Akt; time course): 8 h
- immobility in forced swim test (C57BL/6J mice [1]): decreased the immobility in FST; also recorded: significantly reduced the immobility; also recorded: more robust than that of compound i
- TrkB activation in mouse brain (TrkB [2]; 1 mg/kg oral, hippocampus, at 4 h): robustly activated TrkB; also recorded: strongest TrkB stimulatory effect
- TrkB phosphorylation after chronic treatment (TrkB [2]; 5 mg/kg/day oral, 3 weeks, cortex and hippocampus): escalated TrkB phosphorylation; also recorded: stronger effect than compound i
- TrkB activation (p-TrkB immunoblotting) (TrkB [3]): stronger effect in triggering TrkB activation than compound 4′-DMA-7,8-DHF
- TrkB activation (p-TrkB immunoblotting) (TrkB [3]; listed as 4′-Dimethylamino-7,8-imidazole flavone): stronger TrkB stimulatory activity than compound a
- locomotor activity (C57BL/6J mice [4]): highly augmented the locomotor activity; also recorded: substantially augmented locomoter activity; also recorded: significantly increased the locomotor activity
